What all share (format): cell-based
In test [1] the test system is Enterococcus faecalis ATCC 29212 (VSE; QC). To be noted: ATCC 29212. The procedure, abridged:
(§1)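 Broth microdilution MIC per CLSI in Mueller Hinton II broth containing 0.002% polysorbate 80, with 2-fold serial peptide dilutions from a top final concentration of 32 mcg/mL. Plates were incubated at 35° C. for 16 to 20 hrs; MIC was the lowest peptide concentration inhibiting visible growth.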

Test [2] concerns Escherichia coli ATCC 25922 (QC). As to conditions: ATCC 25922. The procedure, abridged: as §1
Test [3] has as its system Escherichia coli ATCC 35218 (ESBL). As to conditions: ATCC 35218. The procedure, abridged:
as §1

Test [4] concerns Klebsiella pneumoniae ATCC BAA-1705 (KPC). As to conditions: ATCC BAA-1705. Summed up: as §1
The test system of test [5] is Pseudomonas aeruginosa ATCC 27853 (non-MDR; QC). As to conditions: ATCC 27853. The procedure, abridged: as §1
Test [6] relates to Streptococcus agalactiae ATCC 13813. Summed up:
as §1

The test system of test [7] is Streptococcus pyogenes ATCC 49399. As to conditions: ATCC 49399. The procedure, abridged:
as §1

The test system of test [8] is Staphylococcus aureus (n = 104). In words: microbe, parasite or virus in culture. As to the method: (§2) The clinical isolates were obtained from USA hospitals. […] Plates were incubated at 35° C. overnight.
For test [9], the system named is Acinetobacter spp. (n = 104). As to the method: as §2
The subject of test [10] is Escherichia coli (n = 101). To be noted: n = 101. The procedure:
as §2

For test [11], the system named is Klebsiella pneumoniae (n = 101). The procedure: as §2
The test system of test [12] is Pseudomonas aeruginosa (n = 109). To be noted: P. aeruginosa colistin-resistant (COL^R) isolates, n 8. The procedure:
as §2

Read-outs that look alike come from different tables or passages of the source. Ends that are not written are not given here.

The term MIC denotes the least concentration at which growth counts as inhibited. One may read the MIC90 as an inhibitory concentration at the 90% level, which refers to growth in some studies and to a panel of isolates in others. Read a low MIC90 as higher susceptibility. For the substance “RRWVRRVRRVWRRVVRVVRRWVRR-NH2 (C-terminus assumed) [SEQ ID NO: 1]”, the MIC in test [1] stood at 8 µg/mL; in test [2], 4 µg/mL; in test [3] it was 8 µg/mL; in test [4], 8 µg/mL; in [5] it was 8 µg/mL; in [6] it was 8 µg/mL. In test [7], this substance showed an MIC of 8 µg/mL. Moreover, the MIC range in [8] (S. aureus MRSA isolates, n 104) was 1 to 16 µg/mL; in test [8] (Staphylococcus aureus (n = 104), all methicillin-resistant), 1 to 16 µg/mL. The MIC50 in test [8] (n = 104) came out at 4 µg/mL. For the same substance, the “Mode (MIC)” value stood at 4 µg/mL in [8] (n = 104), 4 µg/mL in test [9], 2 µg/mL in test [10] and 8 µg/mL in [11] (n = 101). Moreover, the MIC90 is 4 µg/mL in test [9]; 16 µg/mL in test [9] (Acinetobacter colistin-resistant (COL^R) isolates, n 21); 4 µg/mL in test [10]; 16 µg/mL in test [11] (K. pneumoniae colistin-resistant (COL^R) isolates, n 28); 16 µg/mL in test [12].
